What was measured:
Proteus vulgaris = test: Colony colour test of chromogenic substrate in medium (Example 1); assay type: cell-based
Text: (§1) 6-Chloroindolyl-β-D-galactoside and 5-bromo-4-chloro-3-indolyl-β-D-glucuronide (X-gluc) were each tested separately with 17 different bacterial species including β-galactosidase producing microorganisms, β-glucuronidase producing microorganisms, and microorganisms which produce neither enzyme.

Pseudomonas aeruginosa = test: as above; assay type: cell-based
Text: as §1

Staphylococcus aureus = test: as above; assay type: cell-based
Text: as §1

Sarcina lutea = test: as above; assay type: cell-based
Text: as §1

[1] = test system: Staphylococcus epidermidis; test: as above; assay type: cell-based
Text: as §1

Serratia marcescens = test: as above; assay type: cell-based
Text: as §1

Enterobacter cloacae = test: as above; assay type: cell-based
Text: as §1

Escherichia coli = test: as above; assay type: cell-based; details: for colour of colonies grown in medium containing the substrate: E. coli, substrates tested separately
Text: as §1

Salmonella typhimurium = test: as above; assay type: cell-based
Text: as §1

Bacillus cereus = test: as above; assay type: cell-based
Text: as §1

Citrobacter freundii = test: as above; assay type: cell-based
Text: as §1

Enterobacter aerogenes = test: as above; assay type: cell-based
Text: as §1

[2] = test system: Acinetobacter calcoaceticus; test: as above; assay type: cell-based
Text: as §1

Bacillus subtilus = test: as above; assay type: cell-based
Text: as §1

Bacillus megaterium = test: as above; assay type: cell-based
Text: as §1

[3] = as above; assay type: cell-based; details: Staphylococcus faecalis
Text: as §1

Klebsiella pneumoniae = test: as above; assay type: cell-based
Text: as §1

β-galactosidase [4] = test system: β-galactosidase
Text: The chromogenic β-galactosidase substrate is a β-galactoside comprising galactose joined by β-linkage to a substituent that forms an insoluble precipitate of a first color when liberated by the action of β-galactosidase on the substrate.

β-glucuronidase [5] = biological target: T1, β-glucuronidase (Escherichia coli, UniProt P05804); test: Precipitate formed by substrate upon reaction with enzyme; assay type: biochemical
T1 construct: E. coli produces β-galactosidase, but, unlike general (other) coliforms, also produces β-glucuronidase; endogenous in cells; host or cells: Escherichia coli colonies growing in the test medium
T1 sequence (P05804 whole entry): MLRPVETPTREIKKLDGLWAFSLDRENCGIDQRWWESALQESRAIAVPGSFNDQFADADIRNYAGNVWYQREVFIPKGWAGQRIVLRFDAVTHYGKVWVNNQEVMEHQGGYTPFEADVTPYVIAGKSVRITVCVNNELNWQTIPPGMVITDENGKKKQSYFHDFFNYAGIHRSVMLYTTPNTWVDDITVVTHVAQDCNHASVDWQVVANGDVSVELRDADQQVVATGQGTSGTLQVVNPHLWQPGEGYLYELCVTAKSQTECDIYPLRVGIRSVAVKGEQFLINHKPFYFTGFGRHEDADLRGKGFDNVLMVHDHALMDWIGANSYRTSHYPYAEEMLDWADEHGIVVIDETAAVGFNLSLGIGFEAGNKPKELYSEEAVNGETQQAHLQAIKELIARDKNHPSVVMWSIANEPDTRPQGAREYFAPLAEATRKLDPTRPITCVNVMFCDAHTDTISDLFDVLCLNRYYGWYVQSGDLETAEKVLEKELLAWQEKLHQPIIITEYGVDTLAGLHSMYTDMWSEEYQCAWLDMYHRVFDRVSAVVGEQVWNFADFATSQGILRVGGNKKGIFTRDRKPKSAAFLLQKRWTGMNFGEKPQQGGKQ
Text: The β-glucuronidase substrates and compounds described herein as “glucuronides” include carboxylate salts formed by reacting a suitable base with the glucuronic carboxyl group. Suitable bases include alkali metal or alkaline earth metal hydroxides or carbonates, for example, sodium hydroxide, potassium hydroxide, calcium hydroxide, magnesium hydroxide, and corresponding carbonates; and nitrogen bases such as ammonia and alkylamines such as trimethylamine, triethylamine and cyclohexylamine.

coliforms = test: Enzyme inducer added to medium; assay type: cell-based; details: approximately 25 mg/liter of medium; some species of coliforms
Text: It is possible that the enzyme production of the general coliforms may be enhanced by the addition to the medium formulations of very small amounts of substances known as enzyme inducers. The specific inducer for β-galactosidase is available and is known chemically as isopropyl-β-D-thiogalactopyranoside.

β-glucuronidase [6] = biological target: T1, β-glucuronidase; details: Watkins et al. 1988; cited from earlier work
β-galactosidase [7] = details: known test compound; cited from earlier work

Compound: OC[C@H]1O[C@@H](Oc2c[nH]c3cc(Cl)ccc23)[C@H](O)[C@@H](O)[C@H]1O [6-chloroindolyl-β-D-galactoside]
- coloured colonies in medium with 6-chloroindolyl-β-D-galactoside (Proteus vulgaris): −
- coloured colonies in medium with 6-chloroindolyl-β-D-galactoside (Pseudomonas aeruginosa): −
- coloured colonies in medium with 6-chloroindolyl-β-D-galactoside (Staphylococcus aureus): −
- coloured colonies in medium with 6-chloroindolyl-β-D-galactoside (Sarcina lutea): −
- coloured colonies in medium with 6-chloroindolyl-β-D-galactoside [1]: −
- coloured colonies in medium with 6-chloroindolyl-β-D-galactoside (Serratia marcescens): −
- colour of colonies grown in medium containing the substrate (Enterobacter cloacae): magenta colonies
- coloured colonies in medium with 6-chloroindolyl-β-D-galactoside (Enterobacter cloacae): +
- colour of colonies grown in medium containing the substrate (Escherichia coli): magenta colonies
- coloured colonies in medium with 6-chloroindolyl-β-D-galactoside (Escherichia coli; Escherichia coli): +
- coloured colonies in medium with 6-chloroindolyl-β-D-galactoside (Salmonella typhimurium): −
- coloured colonies in medium with 6-chloroindolyl-β-D-galactoside (Bacillus cereus): −
- colour of colonies grown in medium containing the substrate (Citrobacter freundii): magenta colonies
- coloured colonies in medium with 6-chloroindolyl-β-D-galactoside (Citrobacter freundii): +
- colour of colonies grown in medium containing the substrate (Enterobacter aerogenes): magenta colonies
- coloured colonies in medium with 6-chloroindolyl-β-D-galactoside (Enterobacter aerogenes): +
- coloured colonies in medium with 6-chloroindolyl-β-D-galactoside [2]: −
- coloured colonies in medium with 6-chloroindolyl-β-D-galactoside (Bacillus subtilus): −
- coloured colonies in medium with 6-chloroindolyl-β-D-galactoside (Bacillus megaterium): −
- coloured colonies in medium with 6-chloroindolyl-β-D-galactoside [3]: −
- colour of colonies grown in medium containing the substrate (Klebsiella pneumoniae): magenta colonies
- coloured colonies in medium with 6-chloroindolyl-β-D-galactoside (Klebsiella pneumoniae): +
- precipitate formed when reacted upon by β-galactosidase (β-galactosidase [4]): insoluble magenta precipitate

Compound: O=C(O)[C@H]1O[C@@H](Oc2c[nH]c3cc(Cl)ccc23)[C@H](O)[C@@H](O)[C@@H]1O [6-chloroindolyl-β-D-glucuronide]
- precipitate formed when reacted upon by β-glucuronidase (β-glucuronidase [5]): insoluble magenta precipitate

Compound: CC(C)S[C@@H]1O[C@H](CO)[C@H](O)[C@H](O)[C@H]1O [isopropyl-β-D-thiogalactopyranoside]
- effect on speed of enzyme (β-galactosidase) production (coliforms): positive and noticeable effect on the speed of enzyme production

Compound: O=C(O)[C@H]1O[C@@H](Oc2c[nH]c3ccc(Br)c(Cl)c23)[C@H](O)[C@@H](O)[C@@H]1O [X-gluc, 5-bromo-4-chloro-3-indolyl-β-D-glucuronide, reference compound]
- coloured colonies in X-gluc medium (Proteus vulgaris): −
- coloured colonies in X-gluc medium (Pseudomonas aeruginosa): −
- coloured colonies in X-gluc medium (Staphylococcus aureus): −
- coloured colonies in X-gluc medium (Sarcina lutea): −
- coloured colonies in X-gluc medium [1]: −
- coloured colonies in X-gluc medium (Serratia marcescens): −
- coloured colonies in X-gluc medium (Enterobacter cloacae): −
- colour of colonies grown in medium containing the substrate (Escherichia coli): indigo blue colonies
- coloured colonies in X-gluc medium (Escherichia coli; Escherichia coli): +
- coloured colonies in X-gluc medium (Salmonella typhimurium): −
- coloured colonies in X-gluc medium (Bacillus cereus): −
- coloured colonies in X-gluc medium (Citrobacter freundii): −
- coloured colonies in X-gluc medium (Enterobacter aerogenes): −
- coloured colonies in X-gluc medium [2]: −
- coloured colonies in X-gluc medium (Bacillus subtilus): −
- coloured colonies in X-gluc medium (Bacillus megaterium): −
- coloured colonies in X-gluc medium [3]: −
- coloured colonies in X-gluc medium (Klebsiella pneumoniae): −
- precipitate formed when acted on by β-glucuronidase (β-glucuronidase [6]): insoluble indigo blue precipitate

Compound: OC[C@H]1O[C@@H](Oc2c[nH]c3ccc(Br)c(Cl)c23)[C@H](O)[C@@H](O)[C@H]1O [X-gal, 5-bromo-4-chloro-3-indolyl-β-D-galactopyranoside]
- precipitate formed when acted on by β-galactosidase (β-galactosidase [7]): insoluble indigo blue precipitate

From patent US6699685B1, “Method, test media and chromogenic compounds for identifying and differentiating general coliforms and escherichia coli bacteria” (RCR Scientific, Inc., priority 1990, dated 2004)
